Results published in paper PMC11219871, “Epigenetic-based differentiation therapy for Acute Myeloid Leukemia” (Nature Communications, 2024).

Legend:
Test in all cases: Epigenetic panel (BPS Bioscience)
Format in all cases: binding
TAF1L (BD2) = target: T1, TAF1L (BD2) (Homo sapiens, UniProt Q8IZX4)
T1 construct: purchased BPS Bioscience; Eurofins (HDAC4, 5, 7-11)
Source text: (§1) The selectivity of CM-444 and CM-1758 against other epigenetic targets, including histone demethylase (JMJD2A, JMJD2B, JMJD2C, JMJD2D, JMJD2E, JMJD3, JMJD1A, LSD1, Jarid1A, Jarid1B, Jarid1C, FBXL10, FBXL11, JHDM1D, JMJD1B, PHF8, LSD2 and UTX); histone acetyltransferases (GCN5, P300); histone methyltransferases (G9a, GLP, MLL1, SET7/9, SUV39H1, SUV39H2, PRMT1, PRMT3, PRMT4, PRMT5, PRMT6, PRMT8, PRMT9, NSD1, NSD2, EZH1, EZH2, SETDB1, SETD2, SET8, SUV4-20H1, SMYD2, SMYD3, DOT1L, EZH2 (A677G), EZH2 (A677G), EZH2 (A738T), EZH2 (Y641S), EZH2 (P132S), EZH2 (Y641C), EZH2 (Y641F), EZH2 (Y641H), EZH2 (Y641N)); bromodomains (ATAD2B, ATAD2A, BRD1, BRD9, BPTF/FALZ, CeCR2, BRPF3, BRD3 (BD1 + BD2), BAZ2B, WDR9, TAF1 (BD2), TAF1L (BD2), TAF1L (BD1 + BD2), BRD2 (BD1), BRD2 (BD2), BRD2 (BD1 + BD2), BRD3 (BD1), BRD3 (BD2), BRD4 (BD1), BRD4 (BD2), BRD4 (BD1 + BD2), BRDT (BD1), BRDT (BD1 + BD2), CREBBP, SMARCA2A, SMARCA4/BRG1); DNA methyltranferases (DNMT1, DNMT3A/3L and DNMT3B/3L), and sirtuin histone deacetylases (SIRT1, SIRT2, SIRT3, SIRT5 and SIRT6), were determined by BPS Bioscience (http://www.bpsbioscience.com/index.ph). Binding experiments were performed in duplicate at a concentration of 10 μM.

BRD4 (BD2) = target: T2, BRD4 (BD2) (Homo sapiens, UniProt O60885)
T2 construct: purchased BPS Bioscience; Eurofins (HDAC4, 5, 7-11)
Source text: as §1

BRD3 (BD2) = target: T3, BRD3 (BD2) (Homo sapiens, UniProt Q15059)
T3 construct: purchased BPS Bioscience; Eurofins (HDAC4, 5, 7-11)
Source text: as §1

BPTF/FALZ = target: T4, BPTF/FALZ (Homo sapiens, UniProt Q12830)
T4 construct: purchased BPS Bioscience; Eurofins (HDAC4, 5, 7-11)
Source text: as §1

TAF1 (BD2) = target: T5, TAF1 (BD2) (Homo sapiens, UniProt P21675)
T5 construct: purchased BPS Bioscience; Eurofins (HDAC4, 5, 7-11)
Source text: as §1

BRD2 (BD2) = target: T6, BRD2 (BD2) (Homo sapiens, UniProt P25440)
T6 construct: purchased BPS Bioscience; Eurofins (HDAC4, 5, 7-11)
Source text: as §1

BRD3 (BD1+BD2) = target: T7, BRD3 (BD1+BD2) (Homo sapiens, UniProt Q15059)
T7 construct: purchased BPS Bioscience; Eurofins (HDAC4, 5, 7-11)
Source text: as §1

CREBBP = target: T8, CREBBP (Homo sapiens, UniProt Q92793)
T8 construct: purchased BPS Bioscience; Eurofins (HDAC4, 5, 7-11)
Source text: as §1

BRPF3 = target: T9, BRPF3 (Homo sapiens, UniProt Q9ULD4)
T9 construct: purchased BPS Bioscience; Eurofins (HDAC4, 5, 7-11)
Source text: as §1

ATAD2B = target: T10, ATAD2B (Homo sapiens, UniProt Q9ULI0)
T10 construct: purchased BPS Bioscience; Eurofins (HDAC4, 5, 7-11)
Source text: as §1

BAZ2B = target: T11, BAZ2B (Homo sapiens, UniProt Q9UIF8)
T11 construct: purchased BPS Bioscience; Eurofins (HDAC4, 5, 7-11)
Source text: as §1

BRDT (BD1) = target: T12, BRDT (BD1) (Homo sapiens, UniProt Q58F21)
T12 construct: purchased BPS Bioscience; Eurofins (HDAC4, 5, 7-11)
Source text: as §1

ATAD2A = target: T13, ATAD2A (Homo sapiens, UniProt Q6PL18)
T13 construct: purchased BPS Bioscience; Eurofins (HDAC4, 5, 7-11)
Source text: as §1

BRD9 = target: T14, BRD9 (Homo sapiens, UniProt Q9H8M2)
T14 construct: purchased BPS Bioscience (contracted assay service)
T14 sequence (Q9H8M2 1-597): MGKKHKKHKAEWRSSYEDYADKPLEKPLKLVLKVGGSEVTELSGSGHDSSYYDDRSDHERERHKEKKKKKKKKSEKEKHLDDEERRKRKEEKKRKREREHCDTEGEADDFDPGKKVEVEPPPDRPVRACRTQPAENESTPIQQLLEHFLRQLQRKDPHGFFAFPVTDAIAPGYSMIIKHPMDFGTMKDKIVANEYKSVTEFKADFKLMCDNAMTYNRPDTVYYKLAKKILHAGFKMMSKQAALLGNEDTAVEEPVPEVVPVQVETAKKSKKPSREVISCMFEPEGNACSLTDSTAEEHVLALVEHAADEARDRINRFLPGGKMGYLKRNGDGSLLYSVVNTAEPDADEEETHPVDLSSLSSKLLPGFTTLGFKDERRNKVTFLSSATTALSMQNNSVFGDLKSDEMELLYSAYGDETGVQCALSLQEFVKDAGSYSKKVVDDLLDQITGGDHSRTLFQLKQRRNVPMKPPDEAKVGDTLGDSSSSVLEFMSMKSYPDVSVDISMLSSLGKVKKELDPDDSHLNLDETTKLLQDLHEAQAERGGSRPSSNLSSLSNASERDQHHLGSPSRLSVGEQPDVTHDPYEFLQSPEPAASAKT
Source text: as §1

BRD1 = target: T15, BRD1 (Homo sapiens, UniProt O95696)
T15 construct: purchased BPS Bioscience; Eurofins (HDAC4, 5, 7-11)
Source text: as §1

BRD4 (BD1+BD2) = target: T16, BRD4 (BD1+BD2) (Homo sapiens, UniProt O60885)
T16 construct: purchased BPS Bioscience; Eurofins (HDAC4, 5, 7-11)
Source text: as §1

CeCR2 = target: T17, CeCR2 (Homo sapiens, UniProt Q9BXF3)
T17 construct: purchased BPS Bioscience (contracted assay service)
Source text: as §1

BRDT (BD1+BD2) = target: T18, BRDT (BD1+BD2) (Homo sapiens, UniProt Q58F21)
T18 construct: purchased BPS Bioscience; Eurofins (HDAC4, 5, 7-11)
Source text: as §1

BRD2 (BD1+BD2) = target: T19, BRD2 (BD1+BD2) (Homo sapiens, UniProt P25440)
T19 construct: purchased BPS Bioscience; Eurofins (HDAC4, 5, 7-11)
Source text: as §1

TAF1L (BD1+BD2) = target: T20, TAF1L (BD1+BD2) (Homo sapiens, UniProt Q8IZX4)
T20 construct: purchased BPS Bioscience; Eurofins (HDAC4, 5, 7-11)
Source text: as §1

BRD2 (BD1) = target: T21, BRD2 (BD1) (Homo sapiens, UniProt P25440)
T21 construct: BRD2 (BD1); purchased BPS Bioscience (contracted assay service)
Source text: as §1

WDR9 = target: T22, WDR9 (Homo sapiens, UniProt Q9NSI6)
T22 construct: purchased BPS Bioscience (contracted assay service)
Source text: as §1

T21 sequence (P25440 74-180 limits assumed): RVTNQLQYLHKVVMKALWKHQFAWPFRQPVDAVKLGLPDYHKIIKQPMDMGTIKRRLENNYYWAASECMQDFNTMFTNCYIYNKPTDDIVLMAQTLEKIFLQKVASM
T22 sequence (Q9NSI6 whole entry): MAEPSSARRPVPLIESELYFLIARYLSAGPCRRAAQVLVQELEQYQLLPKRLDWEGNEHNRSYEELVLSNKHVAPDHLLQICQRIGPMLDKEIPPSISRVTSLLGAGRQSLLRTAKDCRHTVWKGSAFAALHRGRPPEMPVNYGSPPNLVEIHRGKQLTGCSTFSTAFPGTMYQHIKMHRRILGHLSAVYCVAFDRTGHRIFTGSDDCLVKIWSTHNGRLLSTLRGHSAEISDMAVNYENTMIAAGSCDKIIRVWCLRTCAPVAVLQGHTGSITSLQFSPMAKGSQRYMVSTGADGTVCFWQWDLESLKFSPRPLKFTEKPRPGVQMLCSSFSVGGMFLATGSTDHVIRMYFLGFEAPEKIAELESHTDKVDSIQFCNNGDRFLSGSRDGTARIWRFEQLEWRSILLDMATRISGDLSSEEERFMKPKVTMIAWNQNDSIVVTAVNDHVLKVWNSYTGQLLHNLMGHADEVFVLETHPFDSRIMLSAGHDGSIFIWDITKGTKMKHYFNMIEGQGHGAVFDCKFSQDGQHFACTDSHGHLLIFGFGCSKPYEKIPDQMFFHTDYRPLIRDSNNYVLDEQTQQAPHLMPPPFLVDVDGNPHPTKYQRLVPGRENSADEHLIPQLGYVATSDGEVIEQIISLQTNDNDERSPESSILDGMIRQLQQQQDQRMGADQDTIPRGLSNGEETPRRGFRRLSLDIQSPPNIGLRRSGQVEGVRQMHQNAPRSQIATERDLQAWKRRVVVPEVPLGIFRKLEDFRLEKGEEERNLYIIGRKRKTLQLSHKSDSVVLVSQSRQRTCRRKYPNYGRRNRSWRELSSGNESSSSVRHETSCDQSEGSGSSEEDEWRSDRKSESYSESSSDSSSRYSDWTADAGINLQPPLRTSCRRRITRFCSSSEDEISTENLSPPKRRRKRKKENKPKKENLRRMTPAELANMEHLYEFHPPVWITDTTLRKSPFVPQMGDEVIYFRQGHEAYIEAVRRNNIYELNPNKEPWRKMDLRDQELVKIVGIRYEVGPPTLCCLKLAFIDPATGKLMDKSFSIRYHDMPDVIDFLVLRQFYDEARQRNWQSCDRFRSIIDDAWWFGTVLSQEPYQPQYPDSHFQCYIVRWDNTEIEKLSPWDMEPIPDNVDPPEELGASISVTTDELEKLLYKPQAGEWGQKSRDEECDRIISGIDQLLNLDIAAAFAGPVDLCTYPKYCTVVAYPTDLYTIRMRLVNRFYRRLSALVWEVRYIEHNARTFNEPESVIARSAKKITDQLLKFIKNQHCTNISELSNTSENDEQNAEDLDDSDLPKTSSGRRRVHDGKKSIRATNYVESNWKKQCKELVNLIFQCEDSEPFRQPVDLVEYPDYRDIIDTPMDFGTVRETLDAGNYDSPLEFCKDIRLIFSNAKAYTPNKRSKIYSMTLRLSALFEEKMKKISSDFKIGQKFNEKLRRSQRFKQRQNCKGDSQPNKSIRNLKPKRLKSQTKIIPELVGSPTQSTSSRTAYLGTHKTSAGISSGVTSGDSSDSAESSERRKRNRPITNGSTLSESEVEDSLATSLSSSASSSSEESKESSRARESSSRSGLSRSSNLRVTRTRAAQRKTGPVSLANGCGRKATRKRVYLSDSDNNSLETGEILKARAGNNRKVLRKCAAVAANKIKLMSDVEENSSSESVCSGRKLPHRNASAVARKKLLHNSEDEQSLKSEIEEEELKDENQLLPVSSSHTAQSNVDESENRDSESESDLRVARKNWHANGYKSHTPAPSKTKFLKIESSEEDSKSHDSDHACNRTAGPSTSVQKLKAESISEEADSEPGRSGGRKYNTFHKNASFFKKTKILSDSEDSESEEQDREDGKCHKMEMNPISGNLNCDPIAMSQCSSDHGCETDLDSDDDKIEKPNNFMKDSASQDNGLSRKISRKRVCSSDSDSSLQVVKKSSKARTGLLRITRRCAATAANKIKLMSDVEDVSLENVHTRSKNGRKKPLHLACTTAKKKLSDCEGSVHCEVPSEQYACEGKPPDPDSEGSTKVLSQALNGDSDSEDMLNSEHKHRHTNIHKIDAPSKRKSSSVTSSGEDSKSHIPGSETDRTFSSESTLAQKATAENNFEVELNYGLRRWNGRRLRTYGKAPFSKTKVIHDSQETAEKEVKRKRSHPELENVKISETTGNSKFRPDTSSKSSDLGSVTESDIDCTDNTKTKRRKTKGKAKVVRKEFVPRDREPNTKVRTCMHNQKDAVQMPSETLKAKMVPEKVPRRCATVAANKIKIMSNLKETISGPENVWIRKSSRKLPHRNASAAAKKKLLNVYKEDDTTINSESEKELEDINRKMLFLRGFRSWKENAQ
T17 sequence (Q9BXF3 whole entry): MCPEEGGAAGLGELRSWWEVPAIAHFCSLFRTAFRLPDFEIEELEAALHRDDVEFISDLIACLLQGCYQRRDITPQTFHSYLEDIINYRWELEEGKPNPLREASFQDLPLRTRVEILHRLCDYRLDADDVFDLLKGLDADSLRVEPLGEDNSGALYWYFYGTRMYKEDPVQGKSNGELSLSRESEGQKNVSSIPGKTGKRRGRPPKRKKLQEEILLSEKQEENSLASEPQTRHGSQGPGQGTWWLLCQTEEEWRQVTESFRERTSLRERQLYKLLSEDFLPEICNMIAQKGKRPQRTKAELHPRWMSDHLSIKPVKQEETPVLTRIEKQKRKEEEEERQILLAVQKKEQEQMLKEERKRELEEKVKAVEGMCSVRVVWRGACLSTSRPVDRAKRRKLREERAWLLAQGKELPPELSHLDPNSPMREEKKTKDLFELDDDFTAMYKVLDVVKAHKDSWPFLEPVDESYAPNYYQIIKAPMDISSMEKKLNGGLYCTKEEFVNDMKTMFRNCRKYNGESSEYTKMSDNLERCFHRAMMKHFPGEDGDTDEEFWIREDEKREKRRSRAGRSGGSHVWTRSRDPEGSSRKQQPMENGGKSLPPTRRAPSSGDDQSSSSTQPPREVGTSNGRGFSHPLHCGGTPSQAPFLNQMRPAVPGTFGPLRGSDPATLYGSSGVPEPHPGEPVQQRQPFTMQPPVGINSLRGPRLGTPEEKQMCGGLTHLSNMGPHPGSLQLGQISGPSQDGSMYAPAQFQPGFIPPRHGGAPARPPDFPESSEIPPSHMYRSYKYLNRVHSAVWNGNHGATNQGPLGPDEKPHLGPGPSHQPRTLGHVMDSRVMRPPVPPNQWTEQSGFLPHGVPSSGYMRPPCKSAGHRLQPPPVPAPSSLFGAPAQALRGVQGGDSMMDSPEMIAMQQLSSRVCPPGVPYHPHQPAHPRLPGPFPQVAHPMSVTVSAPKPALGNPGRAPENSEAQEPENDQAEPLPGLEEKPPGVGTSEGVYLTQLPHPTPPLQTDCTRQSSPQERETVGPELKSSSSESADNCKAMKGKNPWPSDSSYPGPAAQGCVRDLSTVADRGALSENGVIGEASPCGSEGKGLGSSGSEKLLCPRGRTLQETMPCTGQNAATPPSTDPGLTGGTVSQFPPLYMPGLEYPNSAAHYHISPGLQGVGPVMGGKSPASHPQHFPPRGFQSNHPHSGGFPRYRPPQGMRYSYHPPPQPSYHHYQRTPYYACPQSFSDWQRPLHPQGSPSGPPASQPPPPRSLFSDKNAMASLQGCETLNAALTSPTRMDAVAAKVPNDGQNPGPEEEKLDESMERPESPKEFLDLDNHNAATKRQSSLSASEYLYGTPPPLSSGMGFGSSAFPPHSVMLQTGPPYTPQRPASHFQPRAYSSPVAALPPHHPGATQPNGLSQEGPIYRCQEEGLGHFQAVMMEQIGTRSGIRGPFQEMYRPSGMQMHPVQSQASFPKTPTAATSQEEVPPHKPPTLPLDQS
T5 sequence (P21675 1522-1656 limits assumed): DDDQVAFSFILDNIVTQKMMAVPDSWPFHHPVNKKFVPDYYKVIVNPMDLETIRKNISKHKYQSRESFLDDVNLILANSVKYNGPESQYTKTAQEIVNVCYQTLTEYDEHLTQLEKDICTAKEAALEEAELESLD
T6 sequence (P25440 339-459 limits assumed): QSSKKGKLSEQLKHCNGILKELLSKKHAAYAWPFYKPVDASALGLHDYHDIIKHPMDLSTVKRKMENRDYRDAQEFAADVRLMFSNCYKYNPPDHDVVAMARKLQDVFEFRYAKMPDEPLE
T20 sequence (Q8IZX4 1395-1654): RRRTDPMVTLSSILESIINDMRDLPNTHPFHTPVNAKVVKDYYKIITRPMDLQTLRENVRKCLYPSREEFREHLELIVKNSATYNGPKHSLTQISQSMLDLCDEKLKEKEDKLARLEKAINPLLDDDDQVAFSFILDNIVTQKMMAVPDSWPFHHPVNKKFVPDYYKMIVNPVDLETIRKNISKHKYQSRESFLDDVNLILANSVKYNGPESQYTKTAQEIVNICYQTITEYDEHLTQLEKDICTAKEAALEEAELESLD
T19 sequence (P25440 65-459 limits assumed): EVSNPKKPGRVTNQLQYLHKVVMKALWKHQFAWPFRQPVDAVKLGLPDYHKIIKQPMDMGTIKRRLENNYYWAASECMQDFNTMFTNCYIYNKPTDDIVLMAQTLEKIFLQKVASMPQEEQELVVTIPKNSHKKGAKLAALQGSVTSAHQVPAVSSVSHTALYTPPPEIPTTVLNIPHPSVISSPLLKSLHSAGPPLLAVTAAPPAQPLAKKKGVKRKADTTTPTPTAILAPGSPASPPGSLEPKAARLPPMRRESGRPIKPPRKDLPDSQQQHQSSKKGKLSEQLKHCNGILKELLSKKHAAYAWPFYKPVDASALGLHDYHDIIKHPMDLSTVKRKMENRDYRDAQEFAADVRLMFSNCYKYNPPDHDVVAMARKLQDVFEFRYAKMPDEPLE
T1 sequence (Q8IZX4 1523-1654 limits assumed): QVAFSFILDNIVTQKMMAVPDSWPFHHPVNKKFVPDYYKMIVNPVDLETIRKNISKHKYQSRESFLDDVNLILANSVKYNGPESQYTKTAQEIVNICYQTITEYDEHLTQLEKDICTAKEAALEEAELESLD

How did the inhibition at 10 µM (TAF1L (BD2)) turn out when `COc1cc2nc(-c3ccc(C)o3)cc(NCC3CCN(c4ncc(C(=O)NO)cn4)CC3)c2cc1OC` [CM-444, 2-[4-[[[6,7-dimethoxy-2-(5-methyl-2-furyl)-4-quinolyl]amino]methyl]-1-piperidyl]pyrimidine-5-carbohydroxamic acid] was run?
The inhibition at 10 µM was 0%.

What about the inhibition at 10 µM (BRD4 (BD2)) of the same compound?
Its inhibition at 10 µM is 0%.

What about the inhibition at 10 µM (BRD3 (BD2)) of the same compound?
Its inhibition at 10 µM is 0%.

And the inhibition at 10 µM (BPTF/FALZ)?
The inhibition at 10 µM was 0%.

And the inhibition at 10 µM (TAF1 (BD2))?
Its inhibition at 10 µM is 0%.

And the inhibition at 10 µM (BRD2 (BD2))?
The inhibition at 10 µM was 0%.

And the inhibition at 10 µM (BRD3 (BD1+BD2))?
Its inhibition at 10 µM is 43%.

And the inhibition at 10 µM (CREBBP)?
Its inhibition at 10 µM is 0%.

And the inhibition at 10 µM (BRPF3)?
Its inhibition at 10 µM is 0%.

What about the inhibition at 10 µM (ATAD2B) of the same compound?
The inhibition at 10 µM was 0%.

What about the inhibition at 10 µM (BAZ2B) of the same compound?
Its inhibition at 10 µM is 0%.

And the inhibition at 10 µM (BRDT (BD1))?
Its inhibition at 10 µM is 44%.

What about the inhibition at 10 µM (ATAD2A) of the same compound?
Its inhibition at 10 µM is 0%.

And the IC50 (BRD9)?
Its IC50 is 13 µM.

What about the inhibition at 10 µM (BRD9) of the same compound?
The inhibition at 10 µM was 69%.

And the inhibition at 10 µM (BRD1)?
The inhibition at 10 µM was 0%.

What about the inhibition at 10 µM (BRD4 (BD1+BD2)) of the same compound?
The inhibition at 10 µM was 41%.

What about the inhibition at 10 µM (CeCR2) of the same compound?
Its inhibition at 10 µM is 0%.

What about the inhibition at 10 µM (BRDT (BD1+BD2)) of the same compound?
Its inhibition at 10 µM is 38%.

And the inhibition at 10 µM (BRD2 (BD1+BD2))?
The inhibition at 10 µM was 21%.

And the inhibition at 10 µM (TAF1L (BD1+BD2))?
Its inhibition at 10 µM is 0%.

And the IC50 (BRD2 (BD1))?
The IC50 was 30.8 µM.

And the inhibition at 10 µM (BRD2 (BD1))?
Its inhibition at 10 µM is 71%.

And the IC50 (WDR9)?
The IC50 was greater than 50 µM.

And the inhibition at 10 µM (WDR9)?
Its inhibition at 10 µM is 51%.

What does the source list for `COc1cc2nc(-c3cc(C)oc3C)cc(NCC3CCN(c4ncc(C(=O)NO)cn4)CC3)c2cc1OC` [CM-1758, 2-[4-[[[2-(2,5-dimethyl-3-furyl)-6,7-dimethoxy-4-quinolyl]amino]methyl] -1-piperidyl]pyrimidine-5-carbohydroxamic acid]?
inhibition at 10 µM (TAF1L (BD2)): 0%; inhibition at 10 µM (BRD4 (BD2)): 0%; inhibition at 10 µM (BRD3 (BD2)): 0%; inhibition at 10 µM (BPTF/FALZ): 0%; inhibition at 10 µM (TAF1 (BD2)): 0%; inhibition at 10 µM (BRD2 (BD2)): 34%; inhibition at 10 µM (BRD3 (BD1+BD2)): 29%; inhibition at 10 µM (CREBBP): 6%; inhibition at 10 µM (BRPF3): 40%; inhibition at 10 µM (ATAD2B): 13%; inhibition at 10 µM (BAZ2B): 0%; inhibition at 10 µM (BRDT (BD1)): 23%; inhibition at 10 µM (ATAD2A): 0%; IC50 (BRD9): 36 µM; inhibition at 10 µM (BRD9): 75%; inhibition at 10 µM (BRD1): 3%; inhibition at 10 µM (BRD4 (BD1+BD2)): 50%; IC50 (CeCR2): 0.93 µM; inhibition at 10 µM (CeCR2): 72%; inhibition at 10 µM (BRDT (BD1+BD2)): 17%; inhibition at 10 µM (BRD2 (BD1+BD2)): 29%; inhibition at 10 µM (TAF1L (BD1+BD2)): 0%; inhibition at 10 µM (BRD2 (BD1)): 25%; inhibition at 10 µM (WDR9): 35%
